{
  "source": "PubChem BioAssay AID1259407",
  "about": "(Chemical Carcinogenesis Research Information System (CCRIS), 2018)",
  "test_system": "CCRIS mutagenicity, Ames/micronucleus/aberration tests",
  "assay": "CCRIS mutagenicity studies",
  "note": "Activity calls are given as the source filed them. No rule for the calls is given here.",
  "data": [
    {"smiles": "CCOC(=O)CC(SP(=S)(OC)OC)C(=O)OCC", "note": "(stereo not given)", "values": [
      {"measurement": "mutagenic call", "setting": "End Point: IN VITRO CHROMOSOMAL ABERRATIONS, Test System: CHINESE HAMSTER OVARY CELLS, Metabolic Activation: NONE", "value": "inactive; negative"},
      {"measurement": "mutagenic call", "setting": "End Point: IN VITRO CHROMOSOMAL ABERRATIONS, Test System: CHINESE HAMSTER OVARY CELLS, Metabolic Activation: RAT, LIVER, S-9, AROCLOR 1254", "value": "active; positive; precipitation occurred at all doses"},
      {"measurement": "mutagenic call", "setting": "End Point: IN VITRO MICRONUCLEUS, Test System: HUMAN PERIPHERAL LYMPHOCYTES, Metabolic Activation: NONE, Method: DUAL COLOR PROBE", "value": "active; positive"},
      {"measurement": "mutagenic call", "setting": "End Point: IN VIVO CHROMOSOMAL ABERRATIONS, Test System: BONE MARROW, Species: MOUSE, Strain/Sex: SWISS/MALE, Route: IP INJECTION", "value": "active; positive (structural changes: chromosome gaps, abnormal metaphases)"},
      {"measurement": "mutagenic call", "setting": "End Point: IN VIVO CHROMOSOMAL ABERRATIONS, Test System: BONE MARROW, Species: MOUSE, Strain/Sex: SWISS/MALE, Route: ORAL (DIET)", "value": "active; positive (structural changes: gaps, breaks, deletions, tetraploidy)"},
      {"measurement": "mutagenic call", "setting": "End Point: IN VIVO MICRONUCLEUS, Test System: BONE MARROW POLYCHROMATIC ERYTHROCYTES, Species: MOUSE, Strain/Sex: SWISS/MALE, FEMALE, Route: IP INJECTION", "value": "active; positive; higher dose effective"},
      {"measurement": "mutagenic call", "setting": "End Point: IN VIVO MICRONUCLEUS, Test System: BONE MARROW POLYCHROMATIC ERYTHROCYTES, Species: MOUSE, Strain/Sex: SWISS/MALE, FEMALE, Route: ORAL", "value": "active; positive"},
      {"measurement": "mutagenic call", "setting": "End Point: In vivo micronucleus, Test System: Peripheral blood polychromatic and normochromatic erythrocytes, Species: Rat, Strain/Sex: Wistar/Male, Route: Intraperitoneal", "value": "active; positive. positive response at highest dose."},
      {"measurement": "mutagenic call", "setting": "End Point: In vivo micronucleus, Test System: Peripheral blood polychromatic erythrocytes, Species: Rat, Strain/Sex: Wistar/Male, Route: Intraperitoneal", "value": "inactive; negative. increases in ratio of polychromatic erythrocytes to normochromatic lym"},
      {"measurement": "mutagenic call", "setting": "Test System: AMES SALMONELLA TYPHIMURIUM, Strain/Indicator: TA97A, Metabolic Activation: NONE, Method: STANDARD PLATE", "value": "inactive; negative"},
      {"measurement": "mutagenic call", "setting": "Test System: AMES SALMONELLA TYPHIMURIUM, Strain/Indicator: TA97A, Metabolic Activation: RAT, CECAL CELL FREE EXTRACT, Method: STANDARD PLATE", "value": "inactive; negative"},
      {"measurement": "mutagenic call", "setting": "Test System: AMES SALMONELLA TYPHIMURIUM, Strain/Indicator: TA97A, Metabolic Activation: RAT, LIVER, S-9, AROCLOR 1254, Method: STANDARD PLATE", "value": "inactive; negative"},
      {"measurement": "mutagenic call", "setting": "Test System: AMES SALMONELLA TYPHIMURIUM, Strain/Indicator: TA98, Metabolic Activation: NONE, Method: STANDARD PLATE", "value": "inactive; negative"},
      {"measurement": "mutagenic call", "setting": "Test System: AMES SALMONELLA TYPHIMURIUM, Strain/Indicator: TA98, Metabolic Activation: RAT, CECAL CELL FREE EXTRACT, Method: STANDARD PLATE", "value": "inactive; negative"},
      {"measurement": "mutagenic call", "setting": "Test System: AMES SALMONELLA TYPHIMURIUM, Strain/Indicator: TA98, Metabolic Activation: RAT, LIVER, S-9, AROCLOR 1254, Method: STANDARD PLATE", "value": "inactive; negative"},
      {"measurement": "mutagenic call", "setting": "Test System: AMES SALMONELLA TYPHIMURIUM, Strain/Indicator: TA98, Metabolic Activation: S-9, NADPH GENERATING SYSTEM, Method: STANDARD PLATE", "value": "inactive; negative"},
      {"measurement": "mutagenic call", "setting": "Test System: AMES SALMONELLA TYPHIMURIUM, Strain/Indicator: TA100, Metabolic Activation: NONE, Method: STANDARD PLATE", "value": "inactive; negative"},
      {"measurement": "mutagenic call", "setting": "Test System: AMES SALMONELLA TYPHIMURIUM, Strain/Indicator: TA100, Metabolic Activation: RAT, CECAL CELL FREE EXTRACT, Method: STANDARD PLATE", "value": "inactive; negative"},
      {"measurement": "mutagenic call", "setting": "Test System: AMES SALMONELLA TYPHIMURIUM, Strain/Indicator: TA100, Metabolic Activation: RAT, LIVER, S-9, AROCLOR 1254, Method: STANDARD PLATE", "value": "inactive; negative"},
      {"measurement": "mutagenic call", "setting": "Test System: AMES SALMONELLA TYPHIMURIUM, Strain/Indicator: TA102, Metabolic Activation: NONE, Method: STANDARD PLATE", "value": "inactive; negative"},
      {"measurement": "mutagenic call", "setting": "Test System: AMES SALMONELLA TYPHIMURIUM, Strain/Indicator: TA102, Metabolic Activation: S-9, NADPH GENERATING SYSTEM, Method: STANDARD PLATE", "value": "inactive; negative"},
      {"measurement": "mutagenic call", "setting": "Test System: AMES SALMONELLA TYPHIMURIUM, Strain/Indicator: TA1535, Metabolic Activation: NONE, Method: STANDARD PLATE", "value": "inactive; negative"},
      {"measurement": "mutagenic call", "setting": "Test System: AMES SALMONELLA TYPHIMURIUM, Strain/Indicator: TA1535, Metabolic Activation: S-9, NADPH GENERATING SYSTEM, Method: STANDARD PLATE", "value": "inactive; negative"},
      {"measurement": "mutagenic call", "setting": "Test System: AMES SALMONELLA TYPHIMURIUM, Strain/Indicator: TA1537, Metabolic Activation: NONE, Method: STANDARD PLATE", "value": "inactive; negative"},
      {"measurement": "mutagenic call", "setting": "Test System: AMES SALMONELLA TYPHIMURIUM, Strain/Indicator: TA1537, Metabolic Activation: S-9, NADPH GENERATING SYSTEM, Method: STANDARD PLATE", "value": "inactive; negative"}
    ]}
  ]
}
